The source of these data is PMC4965013, “Open Source Drug Discovery with the Malaria Box Compound Collection for Neglected Diseases and Beyond” (PLoS Pathogens, 2016).

Test [1] relates to bovine Babesia and equine Babesia and Theileria parasites. Description: Babesia and Theileria fluorescence-based assay, all four species. As to conditions: for IC50: Babesia, range over compounds and species, read-out: IC50s for both bovine Babesia and equine Babesia and Theileria parasites. It is filed as cell-based, B. bovis, B. bigemina, T. equi, B. caballi.
Test [2] has as its system P. falciparum 3D7 trophozoites. Briefly: Metabolomic fingerprint profiling LC-MS. It counts as cell-based, Plasmodium falciparum. Further details: UDP-D-glucose / ADP-D-glucose: unit not given here.
[3] abbreviates: metabolite level change after treatment.

Molecules are shown by their SMILES.

As to `Cc1cc(N2CCN(C3CCCC3)CC2)n2c(nc3ccccc32)c1C#N` [MMV006706], in test [1], the “anti-Babesia and anti-Theileria hits, IC50 in words” value is on record as “nanomolar IC50s”; the “mean selectivity indices (SI)” value was “greater than 230”; the IC50 was in the range of 43 to 750 nM.
For the compound `CC(C)CCNCC(O)Cn1c2ccccc2c2ccccc21` (centres unmarked) [MMV006787], the “anti-Babesia and anti-Theileria hits, IC50 in words” value in test [1] is listed as “nanomolar IC50s”.
For `CCOc1ccc(CN2CCN(CC(O)COc3ccc(OCC(O)CN4CCN(Cc5ccc(OCC)cc5)CC4)cc3)CC2)cc1` (centres unmarked) [MMV007092], the “anti-Babesia and anti-Theileria hits, IC50 in words” value in test [1] is given as “nanomolar IC50s”.
Consider `CN(C)c1ccc(N=Cc2ccc(N3CCOCC3)cc2)cc1` [MMV073843], for which, in test [1], the “anti-Babesia and anti-Theileria hits, IC50 in words” value is recorded as “nanomolar IC50s”; the “mean selectivity indices (SI)” value is “greater than 230”; the IC50 lay within 43 to 750 nM.
Consider `COc1ccccc1N=C1C(=O)c2ccccc2C(O)=C1N1CCCCC1` [MMV085203], for which the Acetyllysine in test [2] (S2 Table Metabolomics, metabolite Acetyllysine) was 0.5338. In addition, in test [2] (S2 Table Metabolomics, metabolite N-acetyl-L-ornithine), the N-acetyl-L-ornithine turned out to be 0.417. For the same compound, the N-carbamoyl-L-aspartate in test [2] (S2 Table Metabolomics, metabolite N-carbamoyl-L-aspartate) was -0.03953. Moreover, the NADPH in test [2] (S2 Table Metabolomics, metabolite NADPH) turned out to be 1.905. The dAMP in test [2] (S2 Table Metabolomics, metabolite dAMP) is given as 0.2134. Besides, the dCMP in test [2] (S2 Table Metabolomics, metabolite dCMP) is recorded as -0.3018. Besides, in test [2] (S2 Table Metabolomics, metabolite dTDP), the dTDP amounted to 0.1555. In addition, the dTMP in test [2] (S2 Table Metabolomics, metabolite dTMP) is listed as 0.3091. Further, the dTTP in test [2] (S2 Table Metabolomics, metabolite dTTP) is recorded as 0.09879. Further, the dihydroorotate in test [2] (S2 Table Metabolomics, metabolite dihydroorotate) is on record as -0.4435. Further, the orotate in test [2] (S2 Table Metabolomics, metabolite orotate) is on record as -0.006229. In test [2] (S2 Table Metabolomics, peptide DLH), this compound yielded a DLH of 0.05618. The compound also registered a DLS/SDL/SID in test [2] (S2 Table Metabolomics, peptide DLS/SDL/SID) of 0.215. In test [2] (S2 Table Metabolomics, peptide PD), this compound had a PD of -0.1394. This compound returned a PEE in test [2] (S2 Table Metabolomics, peptide PEE) of 0.002208. The same compound registered a PVNF in test [2] (S2 Table Metabolomics, peptide PVNF) of 0.05104. Further, the 3-phosphoglycerate in test [2] (metabolite 3-phosphoglycerate, S2 Table Metabolomics) is 0.03547. The ADP-D-glucose in test [2] (metabolite ADP-D-glucose, S2 Table Metabolomics) was -0.1308. The ATP in test [2] (metabolite ATP, S2 Table Metabolomics) turned out to be 0.1374. In addition, in test [2] (metabolite CDP, S2 Table Metabolomics, change in metabolite level after compound treatment), the CDP was 0.2087. For the same compound, the D-sedoheptulose-1/7-phosphate in test [2] (metabolite D-sedoheptulose-1/7-phosphate, S2 Table Metabolomics, change in metabolite level after compound treatment) is on record as 0.1847. In addition, the FAD in test [2] (metabolite FAD, S2 Table Metabolomics) was -0.04298. The GMP in test [2] (metabolite GMP, S2 Table Metabolomics, change in metabolite level after compound treatment) turned out to be 0.06518. The “NAD+” value in test [2] (metabolite NAD+, S2 Table Metabolomics) was -0.0924. For the same compound, the “NADP+” value in test [2] (metabolite NADP+, S2 Table Metabolomics) is 0.08883. Also, the “Octoluse Bisphosphate” value in test [2] (metabolite Octoluse Bisphosphate, S2 Table Metabolomics, change in metabolite level after compound treatment) is recorded as 0.05889. Also, in test [2] (metabolite Pyroglutamic acid, S2 Table Metabolomics), the Pyroglutamic acid worked out at 0.3327. Also, the UDP-D-glucose in test [2] (metabolite UDP-D-glucose, S2 Table Metabolomics) is listed as 0.02335. The UDP-D-glucuronate in test [2] (metabolite UDP-D-glucuronate, S2 Table Metabolomics) stood at 0.1307. Also, in test [2] (metabolite UDP-N-acetyl-glucosamine, S2 Table Metabolomics), the UDP-N-acetyl-glucosamine was -0.006531. Besides, in test [2] (metabolite UDP, S2 Table Metabolomics, change in metabolite level after compound treatment), the UDP was determined as 0.1215. For the same compound, the UMP in test [2] (metabolite UMP, S2 Table Metabolomics, change in metabolite level after compound treatment) is -0.1092. Also, in test [2] (metabolite UTP, S2 Table Metabolomics, change in metabolite level after compound treatment), the UTP was determined as 0.1112. Further, the a-ketoglutarate in test [2] (metabolite a-ketoglutarate, S2 Table Metabolomics) is listed as 0.6853. Further, the citrate/isocitrate in test [2] (metabolite citrate/isocitrate, S2 Table Metabolomics, change in metabolite level after compound treatment) worked out at 0.6482. For the same compound, in test [2] (metabolite cytidine, S2 Table Metabolomics), the cytidine is -0.04401. In addition, the dATP in test [2] (metabolite dATP, S2 Table Metabolomics) is recorded as 0.1251. In test [2] (metabolite dGMP/AMP, S2 Table Metabolomics, change in metabolite level after compound treatment), the dGMP/AMP was 0.1681. Further, the fumarate in test [2] (metabolite fumarate, S2 Table Metabolomics, change in metabolite level after compound treatment) was determined as 0.1969. Besides, the glucose-1/6-phosphate in test [2] (metabolite glucose-1/6-phosphate, S2 Table Metabolomics, change in metabolite level after compound treatment) was -0.1808. The glycerate in test [2] (metabolite glycerate, S2 Table Metabolomics, change in metabolite level after compound treatment) turned out to be 0.6274. Also, the guanine in test [2] (metabolite guanine, S2 Table Metabolomics, change in metabolite level after compound treatment) is 0.2252. Further, the guanosine in test [2] (metabolite guanosine, S2 Table Metabolomics, change in metabolite level after compound treatment) is 0.5678. In test [2] (metabolite hypoxanthine, S2 Table Metabolomics), the hypoxanthine amounted to 0.8131. Besides, the indole in test [2] (metabolite indole, S2 Table Metabolomics) is reported as 0.6437. Besides, the inosine in test [2] (metabolite inosine, S2 Table Metabolomics, change in metabolite level after compound treatment) worked out at 0.2953. Moreover, in test [2] (setting [3]), the 2_3-Diphosphoglyceric acid was determined as 0.04377, the 4-phosphopantothenate turned out to be 0.03169, the 6-phospho-D-gluconate turned out to be 0.09424 and the FMN is given as -0.0513. In test [2] (setting [3]), the IMP worked out at 0.06497, the Pyrophosphate is -0.1041, the Sedoheptoluse bisphosphate amounted to 0.1294 and the cyclic-AMP is 0.1643. In test [2] (setting [3]), the glutathione disulfide is given as -0.1576, the lactate is listed as 0.4496 and the myo-inositol is given as 0.5579. Also, in test [2] (metabolite nicotinate, S2 Table Metabolomics), the nicotinate is reported as 0.3875. The ornithine in test [2] (metabolite ornithine, S2 Table Metabolomics) amounted to 0.05264. Further, the phosphoenolpyruvate in test [2] (metabolite phosphoenolpyruvate, S2 Table Metabolomics) is recorded as 0.005153. In addition, the pyruvate in test [2] (metabolite pyruvate, S2 Table Metabolomics, change in metabolite level after compound treatment) came out at 1.4601. Further, the ribose-phosphate in test [2] (metabolite ribose-phosphate, S2 Table Metabolomics) is given as 1.0837. The sarcosine/alanine in test [2] (metabolite sarcosine/alanine, S2 Table Metabolomics, change in metabolite level after compound treatment) stood at 0.0342. In addition, in test [2] (metabolite sn-glycerol-3-phosphate, S2 Table Metabolomics), the sn-glycerol-3-phosphate was -0.8649. Besides, in test [2] (metabolite succinate/methylmalonic acid, S2 Table Metabolomics, change in metabolite level after compound treatment), the succinate/methylmalonic acid is 0.5863. The uridine in test [2] (metabolite uridine, S2 Table Metabolomics, change in metabolite level after compound treatment) came to 0.4561. Further, the xanthosine in test [2] (metabolite xanthosine, S2 Table Metabolomics, change in metabolite level after compound treatment) turned out to be 0.5245. Moreover, the “anti-Babesia and anti-Theileria hits, IC50 in words” value in test [1] is reported as “nanomolar IC50s”.
Consider `CC(C)(C)CC(C)(C)NCC(O)COc1ccc(Cl)cc1Cl` (centres unmarked) [MMV396794], for which the “anti-Babesia and anti-Theileria hits, IC50 in words” value in test [1] is reported as “nanomolar IC50s”.
With `Cn1c(=O)n(C)c2cc(CNCCNc3ccnc4cc(Cl)ccc34)ccc21` [MMV665875], in test [1], the “anti-Babesia and anti-Theileria hits, IC50 in words” value is “nanomolar IC50s”; the “mean selectivity indices (SI)” value is given as “greater than 230”; the IC50 was in the range of 43 to 750 nM.
For `CCCC(c1nnnn1C1CCCCC1)N1CCN(C(=O)c2ccco2)CC1` (centres unmarked) [MMV666093], in that order: “nanomolar IC50s”, “greater than 230” and 43 to 750 nM.
